Test results: patent US10226452B2, “Benzoxazolone derivatives as acid ceramidase inhibitors, and their use as medicaments” (FONDAZIONE ISTITUTO ITALIANO DI TECNOLOGIA, priority 2014, dated 2019)

Legend:
[1] = system: A375 cells; test: ceramide levels in A375 human melanoma cells; assay type: cell-based; conditions: 25 μM
Method: Specifically, FIG. 1 evidences the effects of compound of Example 7 or vehicle (0.1% DMSO in DMEM) on AC activity and ceramide levels in A375 (left panel) or MeWo (right panel) human melanoma cell lines. (A-B) Intact cells were treated with compound of Example 7 (25 μM) or vehicle and AC activity was measured 30 minutes or 3 hours later in cell lysates. (B) Intact cells were exposed to compound of Example 7 (25 μM) for 2 hours or 24 hours and medium chain ceramides (C-D), long chain ceramides (E-F) and dihydroceramides (G-H) were quantified. Results are expressed as mean±s.e.m. (n=3). *p<0.05, **p<0.01, ***p<0.001 vs vehicle, two-way ANOVA followed by Dunnet.
Lipids were extracted from mouse tissue lysate with a chloroform/MeOH mixture (2:1 v/v, 3 mL) containing internal standards. The organic phase was collected, dried under nitrogen, and dissolved in chloroform/MeOH (1:3 v/v) for LC-MS analyses. Ceramides, sphingosine and sphinganine were analyzed by LC-MS/MS, using a Waters Acquity UPLC coupled with a Waters Xevo TQMS and interfaced with ESI. Separation was done on a Waters Acquity BEH C18 1.7 μm column (2.1×50 mm) at 60° C. A step gradient of 0.1% formic acid in acetonitrile/water (20:80 v/v) as solvent A and 0.1 formic acid in acetonitrile/isopropyl alcohol (20:80 v/v) as solvent B was applied at a flow rate of 0.4 mL/min. Detection was in the positive ionization mode. Capillary voltage was 3.5 kV and cone voltage was 25 V. The source temperature and desolvation temperatures were set at 120° C. and 600° C. respectively. […]
Tissue-derived ceramides were identified by comparison of their LC retention times and MS^2 fragmentation patterns with those of authentic standards (Avanti Polar Lipids). Extracted ion chromatograms were used to quantify myristoyl ceramide (C14:0, m/z 510.5>492.5>264.3), palmitoyl ceramide (C16:0, m/z 538.5>520.3>264.3), stearoyl ceramide (C18:0 m/z 566.5>548.3>264.3), lignoceroyl ceramide (C24:0 m/z 650.5>632.3>264.3), nervonoyl ceramide (C24:1 m/z 648.5>630.3>264.3) and using lauroyl ceramide standard (m/z 482.5>464.5>264.3). […]

[2] = target: AC (Homo sapiens (Human), UniProt Q13510); test: AC activity in SW403 human colon adenocarcinoma cells; assay type: cell-based
Method: (§1) (A) Intact cells were treated with compound of Example 25 (0.1-20 μM) or vehicle and AC activity was measured 3 hours later in cell lysates. (B-E) Intact cells were exposed to compound of Example 25 (0.1-20 μM) for 3 hours and sphingosine/sphinganine (B), dihydroceramides (C), medium chain ceramides (D), long chain ceramides (E) were quantified. Results are expressed as mean±s.e.m. (n=3). *p<0.05, **p<0.01, ***p<0.001 vs vehicle, two-way ANOVA followed by Dunnet.
(§2) (A) Intact cells were treated with compound of Example 25 (20 μM) or vehicle and AC activity was measured 1 to 48 hours later in cell lysates. (B-E) Intact cells were exposed to compound of Example 25 (20 μM) and sphingosine (B), C16:0 dihydroceramide (C), C16:0 ceramide (D) were quantified. Results are expressed as mean±s.e.m. (n=3). *p<0.05, **p<0.01, ***p<0.001 vs vehicle, two-way ANOVA followed by Dunnet.
hAC protein preparation (10 μg) was preincubated with inhibitors (final DMSO concentration 1%) in assay buffer (100 mM sodium phosphate, 0.1% Nonidet P-40, 150 mM NaCl, 3 mM DTT, 100 mM sodium citrate, pH 4.5) for 30 min at 37° C. Reactions were started by the addition of 50 μM N-lauroyl ceramide (Nu-Chek Prep, Elysian, Minn.) and carried on for 30 min at 37° C. Reactions were stopped by addition of a mixture of chloroform/methanol (2:1, vol/vol) containing 1 nmol 11-lauroleic acid (NuChek Prep). The organic phases were collected, dried under nitrogen and analyzed by UPLC/MS (Acquity, Waters). In the negative-ion mode monitoring the reaction product (lauric acid, m/z=199) using 11-lauroleic acid as internal standard. […]
The [M−H]^− ion was monitored in the selected-ion monitoring mode (m/z values: lauric acid 199, 11-lauroleic acid 197.35). […] Inhibition of AC activity was calculated as reduction of lauric acid in the samples compared to vehicle controls. IC50 values were calculated by non-linear regression analysis of log [concentration]/inhibition curves using GraphPad Prism 5 (GraphPad Software Inc., CA—USA) applying a standard slope curve fitting.

[3] = system: SW403 cells; test: sphingosine and ceramide levels in SW403 cells; assay type: cell-based, human; conditions: 0.1-20 μM, 3 hours
Method: as §1
as §2, with “(n=3). *p<0.05, **p<0.01, ***p<0.001 vs vehicle, two-way ANOVA followed by Dunnet.” left out
Lipids were extracted from mouse tissue lysate with a chloroform/MeOH mixture (2:1 v/v, 3 mL) containing internal standards. […] Ceramides, sphingosine and sphinganine were analyzed by LC-MS/MS, using a Waters Acquity UPLC coupled with a Waters Xevo TQMS and interfaced with ESI. […]
Tissue-derived sphingosine and sphinganine were identified by comparison of their LC retention times and MS^2 fragmentation patterns with those of authentic standards (Avanti Polar Lipids). Extracted ion chromatograms were used to quantify sphingosine ([…], m/z 300.5>282.5) and sphinganine standard (C18:0, m/z 303>285). […]

[4] = 20 μM, AC activity and sphingolipid levels

AC, sequence (Q13510 22-142): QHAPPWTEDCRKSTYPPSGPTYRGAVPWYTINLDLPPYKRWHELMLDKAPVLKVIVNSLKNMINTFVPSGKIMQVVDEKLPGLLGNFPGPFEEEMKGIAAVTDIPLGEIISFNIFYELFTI
AC, sequence (Q13510 143-395): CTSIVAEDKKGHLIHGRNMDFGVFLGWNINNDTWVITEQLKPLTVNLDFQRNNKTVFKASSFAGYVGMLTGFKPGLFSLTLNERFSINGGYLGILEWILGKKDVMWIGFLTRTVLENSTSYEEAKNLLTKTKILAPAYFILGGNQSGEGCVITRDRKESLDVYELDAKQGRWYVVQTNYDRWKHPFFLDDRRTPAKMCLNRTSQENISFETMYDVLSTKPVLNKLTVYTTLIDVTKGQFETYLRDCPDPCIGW

Row | SMILES | duration of effects on ceramide levels ([1]; A375 cells (low AC expression)) | di-hydro ceramide species levels ([1]; A375 cells) | ceramide species levels (cer(d18:1/14:0), cer(d18:1/16:0), cer(d18:1/18:0), cer(d18:1/24:1)) ([1]; A375 cells, LC/MS) | duration of effects (timecourse) [2, 4] | onset of significant effects (timecourse) [2, 4] | AC activity ([2]; 0.1-20 μM, 3 hours) | di-hydro ceramides and ceramide species levels [3] | sphingosine levels [3]
1 | O=C(NCCCCc1ccccc1)n1c(=O)oc2cc(Br)ccc21 [Example 7, 6-Bromo-2-oxo-N-(4-phenylbutyl)-1,3-benzoxazole-3-carboxamide] | lasted up to 24 hours | significant increase in all di-hydro ceramide species analyzed | intracellular accumulation of various ceramide species |  |  |  |  | 
2 | O=C(NCCCCc1ccccc1)n1c(=O)oc2cc(-c3ccc(F)cc3)ccc21 [Example 25, 6-(4-Fluorophenyl)-2-oxo-N-(4-phenylbutyl)-1,3-benzoxazole-3-carboxamide] |  |  |  | ≥ 6 h | ≤ 1 h | concentration dependent reduction in AC activity | intracellular accumulation of various di-hydro ceramides and ceramide species | parallel decrease in sphingosine levels
